We go through six molecules from US11141403B2, “Benzimidazoles and indoles as taro inhibitors” (MERCK SHARP & DOHME CORP., priority 2015, dated 2021).

In one experiment the test system is MRSA COL (MB5393). Kind of experiment: TarO Inhibitor/β-Lactam Synergy Assay. Conditions: 20 hours; for IC95: TarO inhibitor alone, OD600, 95% growth inhibition, read-out: MITC95 TarO inhibitor alone, Bacteria: SA_MB5393; for MITC95 TarO inhibitor + 4 μg/mL IPM; Bacteria: SA_MB5393: in combination with 4 μg/mL imipenem; for MITC95 TarO inhibitor + 4 μg/mL IPM; Bacteria: SA_MB5393 / MITC95 TarO inhibitor + 8 μg/mL DCX; Bacteria: SA_MB5393: OD600; for MITC95 TarO inhibitor + 8 μg/mL DCX; Bacteria: SA_MB5393: in combination with 8 μg/mL dicloxacillin. The class given is cell-based, Staphylococcus aureus. The method in brief: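 TarO inhibitors titrated 2-fold from 200 μM (2% DMSO) against MRSA COL, 5×10^5 CFU in CAMHB, with β-lactam fixed at clinical breakpoint (imipenem 4 μg/ml or dicloxacillin 8 μg/ml). Incubated 20 h at 37 °C without shaking; relative growth read as OD600.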

The test system of a further experiment is MRSA COL (MB 5393). Briefly: In Vivo Murine Systemic Infection Model. Also noted: species or system Staphylococcus aureus. The following applies: for Bacteria recovered: tid, neutropenic Balb/C mice, 24 h post challenge; for Fold reduction vs. vehicle alone: kidney cfu. As for the experimental part:
The murine systemic infection model determines the therapeutic efficacy of TarO inhibitor/β-lactam combinations in vivo. Staphylococci bacteria can cause a systemic infection and establish a robust growth in the kidneys of the infected animal. MRSA COL can establish an infection even in the presence of β-lactam antibiotic due MRSA COL resistance to β-lactam antibiotics.
Female Balb/C mice were rendered neutropenic (immune suppressed) with a single 250 mg/kg intraperitoneal (ip) dose of cyclophosphamide on […]. MRSA COL (MB 5393) was grown for 16 hours in trypticase soy broth (TSB) at 37° C. and 0.5 mL of diluted culture (˜1×10^4 cfu) was administered intraperitoneal (IP). The TarO inhibitor and β-lactam antibiotic were administered alone or in combination by subcutaneous route at 2, 5 and 8 hr. post challenge (sc, tid). Twenty four hours post challenge mice were euthanized and the kidneys harvested, weighed, homogenized and plated to measure the total number of bacteria recovered as colony forming unit (CFU) remaining in compound treated groups as compared to vehicle (saline) or β-lactam antibiotic alone groups (statistical analyses was determined by one way ANOVA).

The target of a further experiment is TarO (Staphylococcus aureus, UniProt Q2G060). Briefly: TarO Biochemical Enzymatic Assay (LC-MS end point, C55-PP-GlcNAc (LIPID III) production). The following applies: TarO membrane preparation derived from MRSA COL; read-out: TARO inhibitor IC50. From the text:
The pathway for the biosynthesis of wall teichoic acid (WTA) in Staphylococci involves a series of biochemical enzymatic reactions by proteins encoded by the tar genes (teichoic acid ribitol). The first enzymatic step in the synthesis of WTA is initiated by TarO, N-acetylglucosaminyl-1-P transferase, which catalyzes the transfer of N-acetyl-glucosamine-phosphate (GlcNAc-P) to an undecaprenyl phosphate (C55-P), also known as bactoprenyl phosphate, to generate C55-PP-GlcNAc (LIPID III).
The TarO biochemical enzymatic assay is a liquid chromatography-mass spectroscopy (LC-MS) based end point assay that measures C55-P-P-GlcNAc (LIPID III) production. The TarO biochemical enzymatic assay was performed in a 384-well microtiter plate (Labcyte) with a reaction volume of 20 μl. […] The linearity of C55-PP-GlcNAc concentration versus mass spectrometric signal (AC55-PP-GlcNAc/A15C-C55-PP-GlcNAc) was determined with purified C55-PP-GlcNAc. The IC50 values were calculated using the nonlinear regression analysis (sigmoidal dose response fit allowing for a variable slope) of percent inhibition data with minimum and maximum values set to 0 and 100 percent.

For orientation: pIC50 means −log10 of the IC50, conventionally taken in molar units.

pIC50: −log10 of the molar value. Several values for one entry are separate records, joined by “and”; a condition that tells them apart may be missing. Equal entries are not always repeated. Where two headings read alike, the source gives them in different places.

TarO, sequence (Q2G060 1-351): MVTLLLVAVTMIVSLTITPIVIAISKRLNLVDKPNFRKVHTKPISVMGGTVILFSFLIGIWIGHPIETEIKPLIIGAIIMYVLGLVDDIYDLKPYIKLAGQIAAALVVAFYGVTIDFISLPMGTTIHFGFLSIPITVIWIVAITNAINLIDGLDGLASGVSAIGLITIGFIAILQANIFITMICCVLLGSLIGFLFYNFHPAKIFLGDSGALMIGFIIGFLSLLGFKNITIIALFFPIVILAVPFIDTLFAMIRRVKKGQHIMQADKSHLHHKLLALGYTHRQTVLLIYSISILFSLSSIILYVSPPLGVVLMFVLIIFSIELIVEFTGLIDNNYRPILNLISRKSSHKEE

Turning to `CC1(C)[C@@H]2CC[C@@]1(C)[C@H](NC(=O)CCn1c(C3CCCCC3)nc3ccccc31)C2` [Example 37, 3-(2-cyclohexyl-1H-benzimidazol-1-yl)-N-[(1R,2R,4R)-1,7,7-trimethylbicyclo[2.2.1]hept-2-yl]propanamide], the IC95 in the experiment on MRSA COL (MB5393) (Staphylococcus aureus) is > 200 µM. The “MITC95 TarO inhibitor + 4 μg/mL IPM; Bacteria: SA_MB5393” value (from here on “MITC95 TarO inhibitor + 4 μg/mL IPM”) in the experiment with MRSA COL (MB5393) was 1.69 µM. The “MITC95 TarO inhibitor + 8 μg/mL DCX; Bacteria: SA_MB5393” value (from here on “MITC95 TarO inhibitor + 8 μg/mL DCX”) in the experiment with MRSA COL (MB5393) worked out at 12.50 µM. Further, the values for the Bacteria recovered in the experiment on MRSA COL (MB 5393) (Example 37 (100 mg/kg) + imipenem (5 mg/kg) sc) and in the experiment with MRSA COL (MB 5393) (Example 37 alone (100 mg/kg) sc) were 2.6×10^4 cfu/g kidney and 1.5×10^7 cfu/g kidney, respectively. The “Fold reduction vs. vehicle alone” value in the experiment with MRSA COL (MB 5393) (Example 37 (100 mg/kg) + imipenem (5 mg/kg)) is 730 and 730.8; with MRSA COL (MB 5393) (Example 37 alone (100 mg/kg)), 1.3.

Consider `CCN(C(=O)CCn1c(C2CCCN(C(=O)OC(C)(C)C)C2)nc2ccccc21)C1CCCCC1` (centres unmarked) [Example 54], for which, in the experiment with MRSA COL (MB5393), the IC95 came to 100 µM, the “MITC95 TarO inhibitor + 4 μg/mL IPM” value worked out at 1.56 µM and the “MITC95 TarO inhibitor + 8 μg/mL DCX” value was 12.50 µM. Further, at TarO, the pIC50 was 6.35.

For `CCC1CCN(Cc2nc3ccccc3n2CCC(=O)N(CC)C2CCCCC2)CC1` [Example 62, N-cyclohexyl-N-ethyl-3-{2-[(4-ethylpiperidin-1-yl)methyl]-1H-benzimidazol-1-yl}propanamide], the IC95 with MRSA COL (MB5393) (Staphylococcus aureus) is > 200 µM. For the same molecule, in the experiment on MRSA COL (MB5393), the “MITC95 TarO inhibitor + 4 μg/mL IPM” value was 6.25 µM and the “MITC95 TarO inhibitor + 8 μg/mL DCX” value is 25 µM.

On to `CC1CCN(C(=O)CCn2c(C3CCCCC3)nc3ccccc32)CC1` [Example 63, 3-(2-cyclohexyl-1H-benzo[d]imidazol-1-yl)-1-(4-methylpiperidin-1-yl)propan-1-one], for which, in the experiment with MRSA COL (MB5393) (Staphylococcus aureus), the IC95 was > 200 µM. The “MITC95 TarO inhibitor + 4 μg/mL IPM” value in the experiment with MRSA COL (MB5393) is 18.75 µM.

With `CCN(C(=O)CCn1c(C2CCCCC2)cc2ccccc21)C1CCCCC1` [Example 64, N-cyclohexyl-3-(2-cyclohexyl-1H-indol-1-yl)-N-ethylpropanamide], in the experiment with MRSA COL (MB5393) (Staphylococcus aureus), the IC95 was > 200 µM. Moreover, the “MITC95 TarO inhibitor + 4 μg/mL IPM” value in the experiment on MRSA COL (MB5393) came out at 6.20 µM.

On to `C[C@@H](O)[C@H]1C(=O)N2C(C(=O)O)=C(SCCN=CN)C[C@H]12` [imipenem, reference compound], for which the Bacteria recovered in the experiment with MRSA COL (MB 5393) (Imipenem alone (5 mg/kg) sc) is recorded as 1.0 × 10^6 cfu/g kidney. Further, the “Fold reduction vs. vehicle alone” value in the experiment on MRSA COL (MB 5393) (Imipenem alone (5 mg/kg)) came out at 19.
